We go through four compounds from patent US11746124B2, “Chemoselective thiol-conjugation with alkene or alkyne-phosphonamidates” (FORSCHUNGSVERBUND BERLIN E.V., priority 2016, dated 2023).

Series [1] in a line: Stability of a vinyl phosphonamidate to different pHs by 31P-NMR in aqueous buffers. The class given is physicochemical. The conditions noted are these: room temperature. An excerpt:
In a first experiment, Ethyl-N-phenyl-P-vinyl-phosphonamidate was chosen to measure stability.

The nature of series [2]: Hydrolytic decay of the GSH-phosphonamidate conjugate in aqueous buffer, 31P NMR over 24 hours. The class given is physicochemical. How it is done: The conjugate could be isolated by semipreparative HPLC under basic conditions as a diastereomeric mixture in a yield of 61%. Having reasonable quantities of this water soluble phosphonamidate-conjugate in hand, studies could be performed in order to determine the hydrolytic properties of the phosphorus-nitrogen bond. For these studies a […] in aqeuous buffer was prepared and the hydrolysis of the phosphonamidate was characterized by monitoring the decay of the conjugate against the standard by means of ^31P NMR over 24 hours.

The nature of series [3]: Rate of glutathione addition to ethyl-N-phenyl alkynyl phosphonamidate, HPLC-UV. The conditions noted are these: reaction with glutathione, after 15 min at pH 8.5. The protocol:
The rate of the reaction was determined by HPLC. Glutathione was added to a solution of ethyl-N-phenyl alkynyl phosphonamidate in aqueous buffer at slightly basic pH. The reaction was stopped after several time points by the addition of an acidic buffer and analyzed by HPLC-UV, referring to inosine as an internal standard. FIG. 2 refers to the consumption of ethyl-N-phenyl alkynyl phosphonamidate in the reaction with glutathione at pH 8.5. HPLC UV traces were taken at different time points. Experiment was performed in triplicate.

Series [4] in a line: Second order rate constant of glutathione addition to EDANS phosphonamidate, fluorescence HPLC. The conditions noted are these: 0.1 mM amidate, 0.1 mM glutathione, 50 mM NH4HCO3, 1 mM EDTA, pH 8.5, 1% DMF. How it is done: To study the kinetics of the thiol addition to alkyne-phosphonamidates at low concentrations, a fluorescent EDANS-based phosphonamidate was synthesized as described in chapter 1.1. Addition of glutathione as a model substrate was probed over time by fluorescence HPLC. Peak integration and normalization to unconjugated EDANS as an internal standard was applied to determine the second order rate constant of the reaction. A second order rate constant of 37.32±0.41 I/mol*s was measured.
Glutathione addition to the EDANS-phosphonamidate was conducted at a final concentration of 0.1 mM amidate, 0.1 mM glutathione and 0.02 mM EDANS as an internal standard in 50 mM NH4HCO3-buffer containing 1 mM EDTA at pH 8.5 with 1% DMF. 2.5 μl of a 20 mM stock solution of EDANS-phosphonamidate in DMF was premixed with 488 μl buffer and 5 μl of a 2 mM stock solution of EDANS in a 1:1 mixture of DMF and buffer. The reaction was started by the addition of 5 μl of a 10 mM solution of glutathione in buffer. 10 μl samples were drawn at 0, 15, 30, 60, 120, 240 and 480 minutes and acidified with 190 μl 10 mM NaOAc-Buffer (pH 5.0) and subjected to fluorescence HPLC analysis.

Take `C=CP(=O)(Nc1ccccc1)OCC` (stereo not drawn) [Ethyl-N-phenyl-P-vinyl-phosphonamidate]: the “stability to different pHs over time” value in series [1] (aqueous buffers) is listed as “stable over a broad pH range”. Moreover, in series [1] (strong acidic conditions), the “stability under strong acidic conditions” value is reported as “P—N-bond cleavage occurred”. Turning to `CCOP(=O)(/C=C\SC[C@H](NC(=O)CC[C@H](N)C(=O)O)C(=O)NCC(=O)O)Nc1ccccc1` (stereo partly drawn) [GSH-phosphonamidate conjugate, (Ethyl-N-phenyl-P-ethenyl-phosphonamidate)-S-glutathion conjugate], the “hydrolytic decay of the conjugate” value is recorded as “stable over the duration of the measurement” in series [2] (slight acidic conditions, 150 mM NH4OAc-buffer, pH 4.76) and “rapid decomposition” in series [2] (strong acidic conditions, 1 M HCL, pH 0.36).

Regarding `C#CP(=O)(Nc1ccccc1)OCC` (stereo not drawn) [alkynyl phosphonamidate, Ethyl-N-phenyl-P-ethynyl-phosphonamidate], the “conversion of the alkynyl phosphonamidate starting material” value in series [3] is “more than 95%”. Consider `C#CP(=O)(Nc1ccc(C(=O)NCCNc2cccc3c(S(=O)(=O)O)cccc23)cc1)OCC` (stereo not drawn) [EDANS-based phosphonamidate, 5-((2-(O-Ethyl-P-ethynyl-phosphonamidato-N-benzoyl)ethyl)amino)naphthalene-1-sulfonic acid], for which the “second order rate constant of the thiol addition” value in series [4] is on record as 37.32±0.41 I/mol*s.
